Data on 1 molecule can be found in patent US20070219214A1, “Dual NK2/NK3-antagonists, pharmaceutical compositions comprising them, and processes for their preparation” (Solvay pharmaceuticals GmbH, priority 2006, published 2007).

Assay [1] concerns the target T1, human NK2-receptor (Homo sapiens, UniProt P21452).
T1 sequence (P21452 1-398): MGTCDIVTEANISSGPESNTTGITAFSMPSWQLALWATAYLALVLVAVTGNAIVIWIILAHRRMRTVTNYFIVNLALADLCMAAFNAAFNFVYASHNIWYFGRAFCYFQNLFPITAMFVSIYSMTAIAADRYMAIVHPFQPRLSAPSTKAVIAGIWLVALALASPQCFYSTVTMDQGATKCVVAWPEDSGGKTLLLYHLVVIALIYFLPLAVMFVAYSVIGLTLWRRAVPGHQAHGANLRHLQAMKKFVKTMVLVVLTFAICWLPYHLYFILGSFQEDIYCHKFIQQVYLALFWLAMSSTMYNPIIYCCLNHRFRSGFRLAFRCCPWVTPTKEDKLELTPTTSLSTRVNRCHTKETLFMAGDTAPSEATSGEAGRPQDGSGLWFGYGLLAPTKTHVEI
Briefly: Functional cellular test, Ca2+ measurements using FLIPR for NK2 activity.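 Further: CHO cells stably expressing the human receptor, loaded with a calcium dye, antagonist inhibition of ligand-evoked intracellular calcium rise read as peak fluorescence change on FLIPR.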 The settings on record: CHO cells, human NK2, FLIPR Ca2+, agonist NKA 10^-7 M.

The target of assay [2] is T2, NK2-receptor (Cavia porcellus, UniProt Q64077).
T2 construct: from tissue; host or cells: whole animal (Pirbright-White guinea pigs), in vivo
T2 sequence (Q64077 1-402): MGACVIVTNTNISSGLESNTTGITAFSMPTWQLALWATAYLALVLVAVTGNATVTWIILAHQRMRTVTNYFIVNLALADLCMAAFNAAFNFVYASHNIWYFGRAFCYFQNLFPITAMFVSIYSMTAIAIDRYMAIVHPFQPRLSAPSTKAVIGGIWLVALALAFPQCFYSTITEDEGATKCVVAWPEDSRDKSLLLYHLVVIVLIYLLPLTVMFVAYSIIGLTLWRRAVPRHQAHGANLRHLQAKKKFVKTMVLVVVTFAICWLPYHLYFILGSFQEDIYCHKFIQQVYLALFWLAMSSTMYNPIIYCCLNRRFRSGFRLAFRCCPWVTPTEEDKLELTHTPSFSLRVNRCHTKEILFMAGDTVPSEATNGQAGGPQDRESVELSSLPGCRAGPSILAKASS
As to the kind of experiment: NK2-receptor-antagonistic effectiveness in vivo, NKA-induced late hypotension, bronchoconstriction and colonic pressure in anaesthetised guinea pigs. The following applies: guinea pig. The text has this:
(§1) 10. Determination of the NK1- and NK2-Receptor-Antagonistic Effectiveness of the Test Substances In Vivo
(§2) The NK1- and NK2-antagonistic activities of the test substances were investigated in anaesthetised guinea pigs in each case after intravenous (=i.v.) and oral (=p.o.) administration in vivo. With the present test model it is possible to detect both NK2-antagonistic effects in three different organ systems (respiratory tracts, colon and circulation) and NK1-antagonistic effects (rapid drop in blood pressure) in an animal simultaneously.
(§3) Pirbright-White guinea pigs of a body weight of 500-700 g were anaesthetised with ketamine/xylazine (67/13 mg/kg subcutaneously, initial dose, further doses administered as required). The animals were provided with an intravenous catheter in order to administer the substance and an intra-arterial catheter to measure the blood pressure. The animals were artificially ventilated via a tracheal cannula and the respiratory pressure was recorded by means of a pressure transducer. A balloon was introduced into the distal colon of the animals for manometric recording of colon motility by means of a pressure transducer. Blood pressure, heart rate, respiratory pressure and colonic pressure were measured continuously for each animal and plotted on a recorder and by means of a digital data-processing system. […] The second phase of delayed hypotension (=phase of maximum hypotension after 2-5 min.) on the other hand is mediated via NK2-receptors, since they can be blocked by specific NK2-receptor antagonists.
(§4) These ED50 values obtained from cumulative dose effect curves are plotted in Table 13.

For another assay, the target named is T3, NK1-receptor (Cavia porcellus, UniProt P30547).
T3 construct: from tissue; host or cells: whole animal (Pirbright-White guinea pigs), in vivo
Briefly: NK1-receptor-antagonistic effectiveness in vivo, NKA-induced early hypotension in anaesthetised guinea pigs. The settings on record: guinea pig.
Text: as §1, §2, §3, §4

The target in assay [3] is T1, human NK2-receptor. As to the kind of experiment: Binding potency of the test substances to NK2-receptors in vitro ([3H]-SR 48968 displacement). Details: expressed in transfected cells; host or cells: CHO cells (membrane preparation). The settings on record: human NK2-receptor in CHO cell membranes, [3H]-SR 48968 (saredutant); average of at least three measurements. Summed up:
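Membranes from CHO cells stably expressing the receptor were incubated with [3H]-saredutant plus test compound, then filtered and counted by liquid scintillation. Nonspecific binding defined with 0.1 μmol/l unlabeled saredutant. IC50 from displacement converted to Ki via Cheng-Prusoff and reported as pKi, averaged over measurements.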

The target in assay [4] is T2, NK2-receptor. As to the kind of experiment: Functional NK2-receptor antagonism in gall bladder preparations isolated from guinea pigs. The following applies: neurokinin A-induced contraction. The procedure: 6. Determination of Functional NK2-Receptor Antagonism of Test Compounds in Tissue Isolated from Guinea Pigs.
The NK2 antagonistic action of test compounds was tested in gall bladder preparations isolated from guinea pigs. The preparations were kept in an oxygenated nutrient solution kept at 37° C. For measuring contraction of the gall bladder muscle, the preparations were fixed to a hook and connected to force displacement transducers. Contractions were recorded on a pen recorder.
Before (predrug) and after the administration of the test compound such contractions were measured and quantified in percent of the predrug contraction. 2-3 concentrations of the test compound were applied showing the inhibition of the receptor stimulation concentration dependently. […]

A further assay addresses human NK1-receptor (Homo sapiens, UniProt P25103). Briefly: Functional cellular test, Ca2+ measurements using FLIPR for NK1 activity. Format: cell-based. Details: expressed in transfected cells; host or cells: CHO fibroblast cells. The settings on record: CHO cells, human NK1, FLIPR Ca2+, agonist substance P 10^-8 M. The text has this:
The NK receptor is coupled to Gq.
All steps were done under sterile conditions.

Setting [5] is: NKA 200 pmol/animal i.v., intravenous administration.
The mark [6] stands for this setting: NKA 200 pmol/animal i.v., oral administration.

T3 sequence (P30547 whole entry): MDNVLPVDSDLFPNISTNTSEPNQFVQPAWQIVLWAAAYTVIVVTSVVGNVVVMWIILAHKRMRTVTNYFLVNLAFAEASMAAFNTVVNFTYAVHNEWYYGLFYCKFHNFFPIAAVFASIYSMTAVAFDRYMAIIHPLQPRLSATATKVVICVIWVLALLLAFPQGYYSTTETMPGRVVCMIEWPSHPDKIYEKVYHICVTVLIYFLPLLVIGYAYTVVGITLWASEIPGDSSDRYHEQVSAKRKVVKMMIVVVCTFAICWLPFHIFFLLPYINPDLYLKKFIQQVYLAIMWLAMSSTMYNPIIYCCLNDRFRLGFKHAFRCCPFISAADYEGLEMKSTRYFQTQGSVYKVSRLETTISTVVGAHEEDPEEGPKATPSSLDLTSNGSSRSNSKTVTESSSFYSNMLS
Sequence of human NK1-receptor (P25103 whole entry): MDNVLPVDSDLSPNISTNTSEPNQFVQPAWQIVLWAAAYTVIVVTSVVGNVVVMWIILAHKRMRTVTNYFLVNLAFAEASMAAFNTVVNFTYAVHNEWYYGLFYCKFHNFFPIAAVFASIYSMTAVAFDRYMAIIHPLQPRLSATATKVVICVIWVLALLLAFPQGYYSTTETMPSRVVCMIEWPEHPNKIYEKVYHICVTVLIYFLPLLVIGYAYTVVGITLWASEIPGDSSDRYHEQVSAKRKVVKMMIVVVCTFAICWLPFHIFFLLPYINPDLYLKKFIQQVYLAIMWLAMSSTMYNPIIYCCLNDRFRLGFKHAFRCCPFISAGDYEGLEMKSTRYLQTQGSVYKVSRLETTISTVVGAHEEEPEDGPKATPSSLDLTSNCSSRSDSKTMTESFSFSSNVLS

Take `CN(C)C(=O)C1(N2CCCCC2)CCN(CC[C@H](CN(C)C(=O)c2cc(C#N)c3ccccc3c2)c2ccc(Cl)c(Cl)c2)CC1` [compound 11]: the “pA2 data for NK2” value on human NK2-receptor [1] stood at 8.4. On NK2-receptor [2] (setting [5]), the “ED50 iv after 1 min (cumulative), NK2 (bronchoconstriction)” value worked out at 0.052 µmol/kg; the “ED50 iv after 1 min (cumulative), NK2 (colonic motility)” value was found to be 0.085 µmol/kg; the “ED50 iv after 1 min (cumulative), NK2 (late hypotension)” value amounted to 0.212 µmol/kg. At NK2-receptor [2] (setting [6]), the “ED50 AUC1-180 min oral, NK2 (bronchoconstriction)” value was 2.213 µmol/kg; the “ED50 AUC1-180 min oral, NK2 (colonic motility)” value worked out at 11.228 µmol/kg; the “ED50 AUC1-180 min oral, NK2 (late hypotension)” value was 2.509 µmol/kg. Besides, on NK2-receptor [2] (oral administration), the “oral activity on the NK2, in words” value is given as “active orally on the NK2”. Also, the “ED50 iv after 1 min (cumulative), NK1 (early hypotension)” value at NK1-receptor (setting [5]) came out at 0.433 µmol/kg. For the same molecule, the “ED50 AUC1-180 min oral, NK1 (early hypotension)” value at NK1-receptor (setting [6]) was 23.027 µmol/kg. Further, the “NK-1-receptor-antagonistic activity on the early hypotension, in words” value at NK1-receptor (cumulative administration i.v., 1 min after administration) is given as “marked NK-1-receptor-antagonistic activity”. For the same molecule, the “oral activity as NK1 receptor antagonist, in words” value on NK1-receptor (oral administration) is reported as “active as NK1 receptor antagonists”. Further, on human NK2-receptor [3], the “pKi, binding potency to NK2-receptors” value is recorded as 8.7. Also, the “pA2, NK-2-receptor-antagonistic effectiveness on the guinea pig gall bladder in vitro” value on NK2-receptor [4] was determined as 8.03. The “pA2 data for NK1” value at human NK1-receptor came out at 7.9.
